Assay: stability testing of initial lyophilized ceftolozane pharmaceutical compositions, HPLC
Format: physicochemical
Settings: certain lyophilized pharmaceutical compositions initially evaluated for intravenous administration
Text: As disclosed herein, ceftolozane was unstable in certain lyophilized pharmaceutical compositions initially evaluated for intravenous administration. In particular, a decrease in ceftolozane purity and the formation of multiple additional related substances were detected in certain initial ceftolozane pharmaceutical compositions by peaks in […] (HPLC) after stability testing. This testing pointed to the need to develop novel ceftolozane formulations providing increased ceftolozane stability. […] Nor does this disclosure provide guidance on the formation of ceftolozane pharmaceutical compositions to increase ceftolozane purity during stability testing or control the relative amounts of ceftolozane related substances detected by HPLC peak formation during stability testing.

ceftolozane stability in lyophilized composition: unstable
SMILES: Cn1c(N)c(NC(=O)NCCN)c[n+]1CC1=C(C(=O)O)N2C(=O)[C@@H](NC(=O)/C(=N\OC(C)(C)C(=O)[O-])c3nsc(N)n3)[C@H]2SC1 [ceftolozane, (6R,7R)-3-[(5-amino-4-{[(2-aminoethyl)carbamoyl]amino}-1-methyl-1H-pyrazol-2-ium-2-yl)methyl]-7-({(2Z)-2-(5-amino-1,2,4-thiadiazol-3-yl)-2-[(1-carboxy-1-methylethoxy)imino]acetyl}amino)-8-oxo-5-thia-1-azabicyclo[4.2.0]oct-2-ene-2-carboxylate]
